Laboratory results published in PMC7947880 (Molecular Biology and Evolution, 2020).
Like-named read-outs stand apart in the source and are kept apart here.

How the values were obtained:
[1] = target: T1, CYP51fx (sterol 14α-demethylase) (Methylococcus capsulatus, UniProt Q603T8); experiment: UV-visible spectral titration; assay type: binding
T1 sequence (Q603T8 1-551): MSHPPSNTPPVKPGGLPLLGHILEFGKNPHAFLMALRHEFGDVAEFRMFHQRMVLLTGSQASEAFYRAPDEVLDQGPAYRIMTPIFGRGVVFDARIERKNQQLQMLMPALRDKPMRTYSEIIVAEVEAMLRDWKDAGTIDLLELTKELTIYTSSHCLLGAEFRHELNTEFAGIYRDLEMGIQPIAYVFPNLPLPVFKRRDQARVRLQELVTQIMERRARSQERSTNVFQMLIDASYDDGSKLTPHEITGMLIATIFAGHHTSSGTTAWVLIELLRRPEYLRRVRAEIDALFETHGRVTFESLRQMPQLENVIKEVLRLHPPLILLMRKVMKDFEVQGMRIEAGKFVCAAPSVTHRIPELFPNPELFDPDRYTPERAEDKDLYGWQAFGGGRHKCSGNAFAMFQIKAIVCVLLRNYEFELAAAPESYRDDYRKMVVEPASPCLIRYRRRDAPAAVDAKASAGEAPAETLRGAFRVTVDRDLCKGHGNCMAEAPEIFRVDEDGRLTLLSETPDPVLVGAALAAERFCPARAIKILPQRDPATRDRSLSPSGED

[2] = target: T1, CYP51fx (sterol 14α-demethylase); assay type: biochemical
[3] = target: T1, CYP51fx (sterol 14α-demethylase); experiment: UV-visible spectral titration; assay type: binding; remark: listed apart in the source
[4] = target: T1, CYP51fx (sterol 14α-demethylase); experiment: UV-visible spectral titration; assay type: binding; remark: listed apart in the source

Row | SMILES | Kd [1] [nM] | Kd [3] [nM] | also measured
1 | CC(C)=CCC[C@@H](C)[C@H]1CC[C@@]2(C)[C@@H]3CC[C@H]4C(C)(C)[C@@H](O)CC[C@@]45C[C@@]35CC[C@]12C [cycloartenol] | 460 |  | 
2 | CC(C)=CCC[C@@H](C)[C@H]1CC[C@@]2(C)[C@@H]3CC[C@H]4C(C)(C)[C@@H](O)CC[C@]4(C)C3=CC[C@]12C [parkeol] | 260 |  | 
3 | C=C(CC[C@@H](C)[C@H]1CC[C@@]2(C)C3=C(CC[C@]12C)[C@@]1(C)CC[C@H](O)[C@@H](C)[C@@H]1CC3)C(C)C [obtusifoliol] |  |  | reconstituted 14α-demethylase turnover of radiolabeled sterol with E. coli flavo [2]: 1.2 min⁻¹
4 | CC(C)=CCC[C@@H](C)[C@H]1CC[C@@]2(C)C3=C(CC[C@]12C)[C@@]1(C)CC[C@H](O)C(C)(C)[C@@H]1CC3 [lanosterol] |  | 94 ± 11 | 
5 | C=C(CC[C@@H](C)[C@H]1CC[C@@]2(C)C3=C(CC[C@]12C)[C@@]1(C)CC[C@H](O)C(C)(C)[C@@H]1CC3)C(C)C [eburicol] |  | 48 ± 4 | 
6 | CC(C)=CCC[C@@H](C)[C@H]1CC[C@@]2(C)[C@@H]3CC=C4[C@@H](CC[C@H](O)C4(C)C)[C@]3(C)CC[C@]12C [cucurbitadienol] |  |  | Kd [4]: 670 nM
